# ChEMBL document CHEMBL6109109, “Fatty acid binding protein 5 inhibitors as novel anticancer agents against metastatic castration-resistant prostate cancer” (Bioorg Med Chem, 2025)
# Legend:
# [1] = test system: PC-3; experiment: Cytotoxicity against human PC-3 cells assessed as reduction in cell viability measured after 72 hrs by MTT assay; type: functional, cell-based; conditions: PC-3, 72 h
# [2] = Binding affinity to FABP5 (unknown origin); design: species or system Homo sapiens
# [3] = Cytotoxicity against mouse RCap cells assessed as reduction in cell viability measured after 72 hrs by MTT assay; type: functional, cell-based
# [4] = Cytotoxicity against human WI-38 cells assessed as reduction in cell viability measured after 72 hrs by MTT assay; type: toxicity, cell-based
SMILES,IC50 [1] [µM],Ki [2] [µM],IC50 [3] [µM],IC50 at 72 h [4] [µM]
O=C(O)[C@H]1[C@H](c2ccccc2)[C@H](C(=O)OC2Cc3ccccc3C2)[C@H]1c1ccccc1,37.6,–,–,–
O=C(O)[C@H]1[C@H](c2ccccc2)[C@H](C(=O)Oc2ccccc2-c2ccccc2)[C@H]1c1ccccc1,16.2,–,–,–
COc1ccccc1[C@H]1[C@H](C(=O)O)[C@H](c2ccccc2OC)[C@H]1C(=O)OC1Cc2ccccc2C1,16.5,–,–,–
O=C(O)[C@H]1[C@H](c2ccccc2)[C@H](C(=O)Oc2cccc(C3=CCOCC3)c2)[C@H]1c1ccccc1,52,1.75,–,–
COc1ccccc1[C@H]1[C@H](C(=O)O)[C@H](c2ccccc2OC)[C@H]1C(=O)Oc1ccccc1-c1ccccc1,19.8,1.59,–,–
O=C1CCc2cc(-c3cccc(OC(=O)[C@H]4[C@@H](c5ccccc5)[C@H](C(=O)O)[C@@H]4c4ccccc4)c3)ccc2N1,11.4,0.74,12.6,42.8
COc1ccccc1[C@H]1[C@H](C(=O)O)[C@H](c2ccccc2OC)[C@H]1C(=O)OCC1(F)c2ccccc2-c2ccccc21,11.8,1.83,13,55.6
COc1ccccc1[C@H]1[C@H](C(=O)O)[C@H](c2ccccc2OC)[C@H]1C(=O)OCCc1ccccc1-c1ccccc1,11.9,0.51,14.2,51
COc1ccccc1[C@H]1[C@H](C(=O)O)[C@H](c2ccccc2OC)[C@@H]1C(=O)Oc1ccc(OC)c2ccccc12,19.6,26.6,–,–
COc1ccccc1[C@H]1[C@H](C(=O)O)[C@H](c2ccccc2OC)[C@H]1C(=O)Oc1ccccc1-c1ccc2c(c1)OCO2,19.9,1.59,–,–
O=C(O)[C@H]1[C@H](c2ccccc2)[C@@H](C(=O)Oc2cc(-c3ccc4c(c3)OCO4)ccc2Br)[C@H]1c1ccccc1,7.72,0.89,9.98,25.9
Cn1cc(-c2ccc(-c3ccc4c(c3)OCO4)cc2OC(=O)[C@H]2[C@@H](c3ccccc3)[C@@H](C(=O)O)[C@@H]2c2ccccc2)cn1,10.3,0.76,6.16,26.4
O=C(O)[C@H]1[C@H](c2ccccc2)[C@H](C(=O)Oc2cc(-c3ccc4c(c3)OCCO4)cc3c2OCCO3)[C@H]1c1ccccc1,11.8,1.15,13.5,68.5
O=C1Cc2ccc(-c3ccccc3OC(=O)[C@H]3[C@@H](c4ccccc4)[C@H](C(=O)O)[C@@H]3c3ccccc3)cc2N1,63.9,0.29,–,–
O=C(O)[C@H]1[C@H](c2ccccc2)[C@@H](C(=O)Oc2cc(-c3ccc4c(c3)OCCO4)cc3c2OCCO3)[C@H]1c1ccccc1,20.7,3.5,–,–
O=C(O)[C@@H]1[C@@H](c2ccccc2)[C@H](C(=O)OCc2ccccc2-c2ccccc2)[C@H]1c1ccccc1,22.1,1.65,–,–
COc1ccccc1[C@H]1[C@H](C(=O)O)[C@H](c2ccccc2OC)[C@H]1C(=O)Oc1cc(-c2ccc3c(c2)OCO3)ccc1-c1cncnc1,10.6,0.64,20.5,66.4
COc1ccccc1[C@H]1[C@H](C(=O)O)[C@H](c2ccccc2OC)[C@H]1C(=O)Oc1cc(-c2ccc3c(c2)OCO3)ccc1Br,10.4,0.35,8.48,15.6
O=C(O)[C@H]1[C@H](c2ccccc2)[C@H](C(=O)Oc2cc(-c3ccc4c(c3)OCO4)ccc2-c2cncnc2)[C@H]1c1ccccc1,12.5,–,30.2,95.5
C#Cc1ccc(-c2ccc3c(c2)OCO3)cc1OC(=O)[C@H]1[C@@H](c2ccccc2OC)[C@@H](C(=O)O)[C@@H]1c1ccccc1OC,21.8,1.68,–,–
N#CCc1ccc(-c2ccccc2)cc1OC(=O)[C@H]1[C@@H](c2ccccc2)[C@@H](C(=O)O)[C@@H]1c1ccccc1,12.3,2.37,30.1,55.2
COc1ccccc1[C@H]1[C@H](C(=O)O)[C@H](c2ccccc2OC)[C@H]1C(=O)Oc1cc(-c2ccc3c(c2)OCO3)ccc1-c1cnn(C)c1,5.71,0.54,7.94,29.8
O=C(O)[C@H]1[C@H](c2ccccc2)[C@@H](C(=O)Oc2cccc(-c3ccc4c(c3)OCCO4)c2)[C@H]1c1ccccc1,9.5,2.47,13.6,31.8
N#CCc1ccc(-c2ccccc2)cc1OC(=O)[C@H]1[C@@H](c2ccccc2)[C@H](C(=O)O)[C@@H]1c1ccccc1,9.47,0.64,22.4,47.3
C#Cc1ccc(-c2ccc3c(c2)OCO3)cc1OC(=O)[C@H]1[C@@H](c2ccccc2OC)[C@H](C(=O)O)[C@@H]1c1ccccc1OC,11.4,1.21,14.8,72.1
Cn1cc(-c2ccc(-c3ccc4c(c3)OCO4)cc2OC(=O)[C@H]2[C@@H](c3ccccc3)[C@H](C(=O)O)[C@@H]2c2ccccc2)cn1,9.66,0.29,8.82,24.1

SMILES,IC50 [1] [µM],Ki [2] [µM],IC50 [3] [µM],IC50 at 72 h [4] [µM]
O=C(O)[C@H]1[C@H](c2ccccc2)[C@H](C(=O)Oc2ccc3cc(-c4cncnc4)ccc3c2)[C@H]1c1ccccc1,12.1,–,18.7,91.9
O=C(O)[C@H]1[C@H](c2ccccc2)[C@H](C(=O)Oc2cc(-c3ccc4c(c3)OCO4)ccc2Br)[C@H]1c1ccccc1,9.36,0.37,14.8,24.8
O=C(O)[C@@H]1[C@@H](c2ccccc2)[C@H](C(=O)Oc2cccc3ccccc23)[C@H]1c1ccccc1,23.8,–,–,–
COc1ccccc1[C@H]1[C@H](C(=O)O)[C@H](c2ccccc2OC)[C@H]1C(=O)Oc1cccc(-c2ccc3c(c2)NC(=O)C3)c1,16.2,1.06,–,–
COc1ccccc1[C@H]1[C@H](C(=O)O)[C@H](c2ccccc2OC)[C@H]1C(=O)Oc1cc(-c2ccccc2)ccc1CC#N,7.31,0.81,8.31,24.4
O=C(O)[C@H]1[C@H](c2ccccc2)[C@@H](C(=O)Oc2cc(-c3ccc4c(c3)OCO4)ccc2-c2ccccc2)[C@H]1c1ccccc1,9.76,1.17,5.53,22.4
O=C(O)[C@H]1[C@H](c2ccccc2)[C@@H](C(=O)Oc2cc(-c3ccc4c(c3)OCO4)ccc2-c2cncnc2)[C@H]1c1ccccc1,5.88,–,2.92,31.5
COc1ccccc1[C@H]1[C@H](C(=O)O)[C@H](c2ccccc2OC)[C@H]1C(=O)Oc1cccc(-c2ccc(C#N)cc2)c1,8.17,1.74,19.1,26.1
N#CCc1ccc(-c2ccc3c(c2)OCO3)cc1OC(=O)[C@H]1[C@@H](c2ccccc2)[C@H](C(=O)O)[C@@H]1c1ccccc1,13,0.64,–,46.3
COc1ccccc1[C@H]1[C@H](C(=O)O)[C@H](c2ccccc2OC)[C@@H]1C(=O)Oc1cccc2ccccc12,25.5,–,–,–
COc1ccccc1[C@H]1[C@H](C(=O)O)[C@H](c2ccccc2OC)[C@H]1C(=O)Oc1cccc(-c2ccc(O)c(O)c2)c1,40.1,1.25,–,–
COc1ccccc1[C@H]1[C@H](C(=O)O)[C@H](c2ccccc2OC)[C@H]1C(=O)Oc1cccc(-c2cccc3c2OCO3)c1,12.4,0.41,19.5,35.1
COc1ccccc1[C@H]1[C@H](C(=O)O)[C@H](c2ccccc2OC)[C@H]1C(=O)Oc1cc(-c2ccc(C#N)cc2)ccc1CC#N,6.39,0.77,12.4,25.4
CC(=O)N1CC=C(c2cccc(OC(=O)[C@H]3[C@@H](c4ccccc4)[C@@H](C(=O)O)[C@@H]3c3ccccc3)c2)CC1,67.4,28.9,–,–
O=C(O)[C@H]1[C@H](c2ccccc2)[C@H](C(=O)OCc2cccc3ccccc23)[C@H]1c1ccccc1,19.1,2.64,–,–
N#CCc1ccc(-c2ccc3c(c2)OCO3)cc1OC(=O)[C@H]1[C@@H](c2ccccc2)[C@@H](C(=O)O)[C@@H]1c1ccccc1,12.8,1.42,–,66.3
N#Cc1ccc(-c2ccc3c(c2)OCCO3)cc1OC(=O)[C@H]1[C@@H](c2ccccc2)[C@H](C(=O)O)[C@@H]1c1ccccc1,15.1,0.64,–,–
N#Cc1ccc(-c2ccccc2OC(=O)[C@H]2[C@@H](c3ccccc3)[C@@H](C(=O)O)[C@@H]2c2ccccc2)cc1,20.5,1.39,–,–
O=C1Cc2cc(-c3cccc(OC(=O)[C@H]4[C@@H](c5ccccc5)[C@@H](C(=O)O)[C@@H]4c4ccccc4)c3)ccc2N1,20,2.21,–,–
COc1ccccc1[C@H]1[C@H](C(=O)O)[C@H](c2ccccc2OC)[C@H]1C(=O)Oc1cc(-c2ccc(C#N)cc2)ccc1-c1cncnc1,14.9,0.38,–,–
COc1ccccc1[C@H]1[C@H](C(=O)O)[C@H](c2ccccc2OC)[C@H]1C(=O)Oc1cccc(-c2ccc(F)cc2)c1,10.8,1.03,12.3,29.2
COc1ccccc1[C@H]1[C@H](C(=O)O)[C@H](c2ccccc2OC)[C@H]1C(=O)Oc1cc(-c2ccc(C#N)cc2)ccc1-c1ccccc1,4.82,0.62,14.5,> 100
C#Cc1ccc(-c2ccc(C#N)cc2)cc1OC(=O)[C@H]1[C@@H](c2ccccc2OC)[C@H](C(=O)O)[C@@H]1c1ccccc1OC,8.89,1.02,17.4,> 200
O=C(O)[C@H]1[C@H](c2ccccc2)[C@H](C(=O)Oc2cccc(-c3ccc(O)c(O)c3)c2)[C@H]1c1ccccc1,52.9,1.25,–,–
COc1ccccc1[C@H]1[C@H](C(=O)O)[C@H](c2ccccc2OC)[C@H]1C(=O)Oc1ccccc1-c1ccc2c(c1)OCCO2,17.8,2.81,–,–
